Reference: patent publication US20240382561A1, “GLUCOREGULATORY COMPOUND, COMPOSITION AND USES THEREOF” (THE HONG KONG POLYTECHNIC UNIVERSITY, priority 2021, published 2024)

Columns and labels:
[1] = system: mouse primary adipocytes; test: 2-NBDG glucose uptake in mouse primary adipocytes; format: cell-based; details: inhibitor 1 μM; for effect of co-treatment on CYSTM1-induced glucose uptake: primary adipocytes, CYSTM1 1 μM
Protocol: (§1) To determine whether CYSTM1 can increase glucose uptake in adipocytes, in vitro assays of 2-NBDG uptake in response to CYSTM1 treatment and potential inhibitors in 3T3-L1 adipocytes and mouse primary adipocytes were performed. 3T3-L1 preadipocytes were maintained in Dulbecco's modified Eagle's medium (DMEM) supplemented with 10% fetal bovine serum. Two days after confluence, 3T3-L1 cells were induced to differentiation using the standard adipogenic cocktail (0.5 mM IBMX, 1 μM dexamethasone and 10 μg/ml insulin) that was applied for 4 days and followed by 10 μg/ml insulin treatment for additional 4 days. The culture medium was changed every other day. The differentiated cells were maintained in normal serum containing DMEM. Mouse primary adipocytes were isolated from 10 to 12-week-old male C57BL/6J mice using a collagenase digestion protocol as described, briefly, white fat pads were removed, minced and digested using collagenase for 60-90 min at 37° C. in Krebs-Ringers phosphate HEPES buffer (KRPH) (15 mM HEPES, pH 7.4, 118 mM NaCl, 4.8 mM KCl, 1.2 mM MgSO4, 1.3 mM CaCl2, 1.2 mM KHPO3, 0.1% BSA). The stromal vascular fraction was separated from the adipocytes and cultured using DMEM and differentiated the same as 3T3-L1 adipocytes as described above. For glucose uptake, differentiated 3T3-L1 adipocytes and primary adipocytes are plated at 10,000 cells/well in 96-well plates and fasted overnight with low glucose serum-free medium (DMEM with 0.25% BSA) DMEM and 2-NBDG (Cayman Chemical) was performed as follow: briefly, 3T3-L1 cells were washed twice with warm (37° C.) KRPH buffer, and adipocytes were either untreated or treated with different concentration of CYSTM1 (1 nM, 10 nM, 100 nM and 1000 nM) for 1 h in KRPH buffer containing 400 nM of 2-NBDG. NBDG uptake was measured using a fluorescent microplate reader (Thermo Scientific Varioskan LUX Multimode Microplate Reader).

[2] = system: 3T3-L1 adipocytes; test: 2-NBDG glucose uptake in 3T3-L1 adipocytes; format: cell-based; details: inhibitor 1 μM; for effect of co-treatment on CYSTM1-induced glucose uptake: 3T3-L1 cells, CYSTM1 1 μM
Protocol: as §1

[3] = system: MIN6 pancreatic beta cell; test: Insulin secretion in MIN6 cells with GLP-1R antagonist exendin (9-39); format: cell-based, mouse; details: exendin (9-39) 10 nM

Cc1cccc([C@@H](CO)NC(=O)[C@@H](C)N2Cc3ccc(-c4nc(NC5CCOCC5)ncc4Cl)cc3C2=O)c1 [ERK1/2 inhibitor 1]
effect of co-treatment on CYSTM1-induced glucose uptake [1]: blocked | effect of co-treatment on CYSTM1-induced glucose uptake [2]: blocked

CCn1c(-c2nonc2N)nc2c(C#CC(C)(C)O)ncc(OC[C@H]3CCCNC3)c21 [GSK690693]
inhibition of CYSTM1-induced increase in glucose uptake ([1]; mouse primary adipocytes, 5 μM, 10 μM, CYSTM1 1 μM (FIG. 8D)): inhibited by the dose-dependent manner | effect of co-treatment on CYSTM1-induced glucose uptake [1]: blocked | inhibition of CYSTM1-induced increase in glucose uptake ([2]; 3T3-L1 adipocytes, 5 μM, 10 μM, CYSTM1 1 μM (FIG. 8B)): inhibited by the dose-dependent manner | effect of co-treatment on CYSTM1-induced glucose uptake [2]: blocked

exendin (9-39)
inhibition of CYSTM1 activity (insulin secretion) by the antagonist ([3]; CYSTM1 10 nM): did not inhibit CYSTM1 activity | inhibition of glucose-induced insulin secretion of GLP-1 by the antagonist ([3]; GLP-1 10 nM): inhibited

glucagon-like peptide 1 [GLP-1]
glucose-induced insulin secretion of GLP-1 in presence of exendin (9-39) ([3]; GLP-1 10 nM): inhibited by exendin (9-39)
